Source: PubChem BioAssay AID720588 (Broad Institute, 2013)
Active and inactive are the calls of the source.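 How the source made its calls: active means fitted curve falls past a set limit of signal loss at no more than twice the top dose; inconclusive means flat fit between 30 and 70% signal loss, or poor fit; inactive means signal rise, flat within 30%, or crossing too high.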

Experiment: ATP-based viability loss in HEK293T cells – cell-based, CellTiter-Glo luminescence, cherry-pick, set 3, cytotoxicity control, dose response (AID 720588)
Conditions: HEK293T viability, CellTiter-Glo ATP luminescence, 72 h; at 23.5 µM (top of the series)

| Compound | activity change, negative = cytotoxicity |
| --- | --- |
| CCCNC(=O)N1[C@H](C#N)[C@H](c2ccc(C#Cc3cccc(F)c3)cc2)[C@H]1CO | -0.501% (inactive) |

Same assay, conditions: HEK293T viability, CellTiter-Glo ATP luminescence, 72 h; at 26 µM (top of the series)

| Compound | activity change, negative = cytotoxicity |
| --- | --- |
| Nc1cc2c(cc1Br)[nH]c(=O)c1ccccc12 | 17.5% (inactive) |
| COc1cc(C(c2c(C)[nH][nH]c2=O)c2c(C)[nH][nH]c2=O)ccc1OC(C)C | -1.41% (inactive) |
| CN=c1scc(-c2ccccc2F)n1/N=C/c1ccc(O)c(O)c1O | -25.3% (inactive) |
| CCCCOc1ccc(NC(=O)C(=O)NCCCn2ccnc2)cc1 | -3.53% (inactive) |
| COc1ccc(-c2sc3ccccc3c2-c2ccc(OCCN3CCCCC3)cc2)cc1 | -16% (inactive) |
| CCOc1cc(N2CCC(O)CC2)ccc1Nc1ncc2c(n1)N(C)c1ccccc1C(=O)N2C | 22.8% (inactive) |
| C[C@@H]1CN([C@H](C)CO)C(=O)c2cc(C#CCc3ccccc3)cnc2O[C@@H]1CN(C)Cc1cccc(F)c1 | -3.37% (inactive) |
| Cc1ccc2c(c1)C(=O)N1[C@H]3c4cc(Br)ccc4OC[C@@H]3[C@H](c3ccccc3)[C@]1(C)C(=O)N2 | -13.8% (inactive) |
| C[C@H]1CN([C@@H](C)CO)C(=O)Cc2cc(NC(=O)C3CC3)ccc2O[C@H]1CN(C)S(=O)(=O)c1ccc(Cl)cc1 | -9.99% (inactive) |
| Cc1csc(NC(=O)CCc2c(C)nc3cc(-c4ccc(Cl)cc4)nn3c2C)n1 | -13.4% (inactive) |
| Cc1cccc(NC(=O)CN2CCN(C(=O)CNC(=O)c3ccc(-c4ccccc4)cc3)CC2)c1C | -18.2% (inactive) |
| CCOC(=O)Cc1csc(NC(=S)NC(=O)c2ccc(C)cc2)n1 | -21.9% (inactive) |
| COC(=O)c1c(C)[nH]c(/C=N/Nc2ccccc2)c1C | -4.63% (inactive) |
| N#C[C@@H]1[C@H](c2ccc(C#Cc3cccc(F)c3)cc2)[C@@H](CO)N1C(=O)C1CCCC1 | 38% (inactive) |
| O=C(NCc1ccccn1)c1ccc(CNS(=O)(=O)c2cccc(Cl)c2)cc1 | -15.8% (inactive) |
| CCOc1ccc2nc(NC3=NC(c4ccc(OC)cc4)CC(=O)N3)nc(C)c2c1 (stereo unspecified) | -23.2% (inactive) |
| N#C[C@H]1N[C@H](CO)[C@H]1c1ccc(C#Cc2ccc(F)cc2)cc1 | -13% (inactive) |
| C[C@H]1CN([C@@H](C)CO)C(=O)c2cccc(NC(=O)CCCCCC(=O)Nc3ccccc3N)c2O[C@@H]1CN(C)Cc1ccc2c(c1)OCO2 | -20.1% (inactive) |
| Cc1ccsc1/C=N/Nc1cccc(C(=O)O)c1 | -23% (inactive) |
| COc1ccc2nc(-c3ccc(F)cc3)sc2c1 | -5.49% (inactive) |
| COc1ccc(/C=C2/NC(=O)N(CC(=O)Nc3cccc(C)c3)C2=O)cc1O | -15.3% (inactive) |
| O=C(C[C@@H]1C[C@H]2c3cc(NC(=O)CC4CC4)ccc3O[C@H]2[C@H](CO)O1)NCc1ccccc1F | 13.3% (inactive) |
| CCc1ccc(/C=C2\SC(=S)N(CCCC(=O)NC3=NCCS3)C2=O)cc1 | -17.5% (inactive) |
| COc1ccc(/C=C2\SC(=O)N(CCCC(=O)Nc3cc(Cl)ccc3C(=O)O)C2=O)cc1 | -2.58% (inactive) |
| O=C1c2ccc3c4c(ccc(c24)C(=O)N1c1cccc(O)c1)C(=O)N(c1cccc(O)c1)C3=O | 7.85% (inactive) |
| COC(=O)C[C@@H]1CC[C@@H]2[C@H](COc3ccc(NC(=O)c4ccccc4)cc3C(=O)N2C)O1 | 41.2% (inactive) |
| COc1cc(/C=C/C(=O)/C=C(O)/C=C/c2ccc(O)c(OC)c2)ccc1O | -35.9% (inactive) |
| CCOc1ccc(-c2cc(CCCC(=O)NCc3ccc(C)cc3)no2)cc1 | 8.45% (inactive) |
| COc1cccc(Sc2ccccc2/C=N/NC(N)=O)c1 | -10.9% (inactive) |
| COc1ccc(S(=O)(=O)N2CCCc3nc(-c4ccc(F)cc4)ccc32)cc1 | -5.94% (inactive) |
